Reference: ChEMBL document CHEMBL1201862, “PubChem BioAssay data set” (2004)
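48-hour exposure; five concentrations; linearly interpolated endpoints. Here, GI50 denotes the concentration required for 50% inhibition of growth.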 Calls of active or inactive are those of the source. Cut-off read from the data, not from the text of the source: active = GI50 up to about 1.1 µM and inactive = higher.

Columns and labels:
Assay in all cases: NCI anticancer screen, dose series, 48 h
ACHN = system: ACHN
HCT-116 = system: HCT-116
UO-31 = system: UO-31
SK-OV-3 = system: SK-OV-3
DU-145 = system: DU-145
IGROV-1 = system: IGROV-1
MCF7 = system: MCF7
EKVX = system: EKVX
HOP-62 = system: HOP-62
OVCAR-5 = system: OVCAR-5
SN12C = system: SN12C
786-0 = system: 786-0
NCI-H23 = system: NCI-H23
M14 = system: M14
SK-MEL-5 = system: SK-MEL-5
UACC-257 = system: UACC-257
MOLT-4 = system: MOLT-4
HCC 2998 = system: HCC 2998
PC-3 = system: PC-3
Hs-578T = system: Hs-578T
Malme-3M = system: Malme-3M
OVCAR-4 = system: OVCAR-4
A498 = system: A498
NCI-H226 = system: NCI-H226
OVCAR-3 = system: OVCAR-3
CCRF-CEM = system: CCRF-CEM
SR = system: SR
SK-MEL-28 = system: SK-MEL-28
HL-60 = system: HL-60
MDA-MB-231 = system: MDA-MB-231
HOP-92 = system: HOP-92
SK-MEL-2 = system: SK-MEL-2
NCI-H460 = system: NCI-H460
HCT-15 = system: HCT-15
UACC-62 = system: UACC-62
RXF 393 = system: RXF 393
NCI/ADR-RES = system: NCI/ADR-RES
SF-268 = system: SF-268
U-251 = system: U-251
SF-539 = system: SF-539
NCI-H522 = system: NCI-H522
SW-620 = system: SW-620
KM12 = system: KM12
HT-29 = system: HT-29
LOX IMVI = system: LOX IMVI
COLO 205 = system: COLO 205
K562 = system: K562
SNB-19 = system: SNB-19
TK-10 = system: TK-10
SF-295 = system: SF-295
MDA-MB-435 = system: MDA-MB-435
MDA-N = system: MDA-N
RPMI-8226 = system: RPMI-8226
A549 = system: A549
SNB-75 = system: SNB-75
OVCAR-8 = system: OVCAR-8
T47D = system: T47D

C/C(=N/NC(=S)N1CCCCCC1)c1cccc(/C(C)=N\NC(=S)N2CCCCCC2)n1
GI50 (ACHN): 1480 nM (inactive)
GI50 (HCT-116): 1660 nM (inactive)
GI50 (UO-31): 1370 nM (inactive)
GI50 (SK-OV-3): 2430 nM (inactive)
GI50 (DU-145): 2290 nM (inactive)
GI50 (IGROV-1): 1490 nM (inactive)
GI50 (MCF7): 1570 nM (inactive)
GI50 (EKVX): 3130 nM (inactive)
GI50 (HOP-62): 1890 nM (inactive)
GI50 (OVCAR-5): 2240 nM (inactive)
GI50 (SN12C): 2090 nM (inactive)
GI50 (786-0): 1300 nM (inactive)
GI50 (NCI-H23): 2310 nM (inactive)
GI50 (M14): 1710 nM (inactive)
GI50 (SK-MEL-5): 1420 nM (inactive)
GI50 (UACC-257): 1580 nM (inactive)
GI50 (MOLT-4): 2430 nM (inactive)
GI50 (HCC 2998): 2270 nM (inactive)
GI50 (PC-3): 1640 nM (inactive)
GI50 (Hs-578T): 5200 nM (inactive)
GI50 (Malme-3M): 938 nM (active)
GI50 (OVCAR-4): 1010 nM (active)
GI50 (A498): 1490 nM (inactive)
GI50 (NCI-H226): 1750 nM (inactive)
GI50 (OVCAR-3): 1010 nM (active)
GI50 (CCRF-CEM): 2670 nM (inactive)
GI50 (SR): 2380 nM (inactive)
GI50 (SK-MEL-28): 2300 nM (inactive)
GI50 (HL-60): 1910 nM (inactive)
GI50 (MDA-MB-231): 1700 nM (inactive)
GI50 (HOP-92): 1700 nM (inactive)
GI50 (SK-MEL-2): 1670 nM (inactive)
GI50 (NCI-H460): 2550 nM (inactive)
GI50 (HCT-15): 2090 nM
GI50 (UACC-62): 2380 nM (inactive)
GI50 (RXF 393): 1600 nM (inactive)
GI50 (NCI/ADR-RES): 1690 nM (inactive)
GI50 (SF-268): 2510 nM (inactive)
GI50 (U-251): 2320 nM (inactive)
GI50 (SF-539): 1560 nM (inactive)
GI50 (NCI-H522): 2620 nM (inactive)
GI50 (SW-620): 1110 nM (active)
GI50 (KM12): 1630 nM (inactive)
GI50 (HT-29): 2160 nM (inactive)
GI50 (LOX IMVI): 1720 nM (inactive)
GI50 (COLO 205): 1470 nM (inactive)
GI50 (K562): 2450 nM (inactive)
GI50 (SNB-19): 3270 nM (inactive)
GI50 (TK-10): 1770 nM (inactive)
GI50 (SF-295): 1890 nM (inactive)
GI50 (MDA-MB-435): 1840 nM (inactive)
GI50 (MDA-N): 2230 nM (inactive)
GI50 (RPMI-8226): 1910 nM (inactive)
GI50 (A549): 2070 nM (inactive)
GI50 (SNB-75): 1950 nM (inactive)
GI50 (OVCAR-8): 1550 nM (inactive)
GI50 (T47D): 2310 nM (inactive)
